According to patent publication US8697739B2, “Bicyclic acetyl-CoA carboxylase inhibitors and uses thereof” (Novartis AG, priority 2010, dated 2014):

Molecular target: T1, human acetyl-CoA carboxylase 2 (ACC2) (Homo sapiens, UniProt O00763)
T1 construct: The cDNA encoding amino acids 144 to 2458 of human acetyl-CoA carboxylase 2; made in house; host or cells: Sf9 insect cells (baculovirus, pFastBac1)
Assay: Acetyl-CoA carboxylase enzyme assay (malonyl-CoA formation by LC/MS/MS)
Assay type: biochemical
Conditions: recombinant human ACC2 (aa 144-2458); read-out: IC50 ACC2
Summary of the method: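 Malonyl-CoA formation was read by LC/MS/MS MRM against a [13C3]-malonyl-CoA internal standard, after acetic acid quench. The enzyme was baculovirus/Sf9-expressed human ACC2 residues 144–2458, given 15 minutes room-temperature compound preincubation in HEPES pH 7.5 buffer with MgCl2, citrate and DTT. Substrate solution held 50 μM acetyl-CoA, 120 μM ATP and 2 mM KHCO3.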

T1 sequence (O00763 144-2458): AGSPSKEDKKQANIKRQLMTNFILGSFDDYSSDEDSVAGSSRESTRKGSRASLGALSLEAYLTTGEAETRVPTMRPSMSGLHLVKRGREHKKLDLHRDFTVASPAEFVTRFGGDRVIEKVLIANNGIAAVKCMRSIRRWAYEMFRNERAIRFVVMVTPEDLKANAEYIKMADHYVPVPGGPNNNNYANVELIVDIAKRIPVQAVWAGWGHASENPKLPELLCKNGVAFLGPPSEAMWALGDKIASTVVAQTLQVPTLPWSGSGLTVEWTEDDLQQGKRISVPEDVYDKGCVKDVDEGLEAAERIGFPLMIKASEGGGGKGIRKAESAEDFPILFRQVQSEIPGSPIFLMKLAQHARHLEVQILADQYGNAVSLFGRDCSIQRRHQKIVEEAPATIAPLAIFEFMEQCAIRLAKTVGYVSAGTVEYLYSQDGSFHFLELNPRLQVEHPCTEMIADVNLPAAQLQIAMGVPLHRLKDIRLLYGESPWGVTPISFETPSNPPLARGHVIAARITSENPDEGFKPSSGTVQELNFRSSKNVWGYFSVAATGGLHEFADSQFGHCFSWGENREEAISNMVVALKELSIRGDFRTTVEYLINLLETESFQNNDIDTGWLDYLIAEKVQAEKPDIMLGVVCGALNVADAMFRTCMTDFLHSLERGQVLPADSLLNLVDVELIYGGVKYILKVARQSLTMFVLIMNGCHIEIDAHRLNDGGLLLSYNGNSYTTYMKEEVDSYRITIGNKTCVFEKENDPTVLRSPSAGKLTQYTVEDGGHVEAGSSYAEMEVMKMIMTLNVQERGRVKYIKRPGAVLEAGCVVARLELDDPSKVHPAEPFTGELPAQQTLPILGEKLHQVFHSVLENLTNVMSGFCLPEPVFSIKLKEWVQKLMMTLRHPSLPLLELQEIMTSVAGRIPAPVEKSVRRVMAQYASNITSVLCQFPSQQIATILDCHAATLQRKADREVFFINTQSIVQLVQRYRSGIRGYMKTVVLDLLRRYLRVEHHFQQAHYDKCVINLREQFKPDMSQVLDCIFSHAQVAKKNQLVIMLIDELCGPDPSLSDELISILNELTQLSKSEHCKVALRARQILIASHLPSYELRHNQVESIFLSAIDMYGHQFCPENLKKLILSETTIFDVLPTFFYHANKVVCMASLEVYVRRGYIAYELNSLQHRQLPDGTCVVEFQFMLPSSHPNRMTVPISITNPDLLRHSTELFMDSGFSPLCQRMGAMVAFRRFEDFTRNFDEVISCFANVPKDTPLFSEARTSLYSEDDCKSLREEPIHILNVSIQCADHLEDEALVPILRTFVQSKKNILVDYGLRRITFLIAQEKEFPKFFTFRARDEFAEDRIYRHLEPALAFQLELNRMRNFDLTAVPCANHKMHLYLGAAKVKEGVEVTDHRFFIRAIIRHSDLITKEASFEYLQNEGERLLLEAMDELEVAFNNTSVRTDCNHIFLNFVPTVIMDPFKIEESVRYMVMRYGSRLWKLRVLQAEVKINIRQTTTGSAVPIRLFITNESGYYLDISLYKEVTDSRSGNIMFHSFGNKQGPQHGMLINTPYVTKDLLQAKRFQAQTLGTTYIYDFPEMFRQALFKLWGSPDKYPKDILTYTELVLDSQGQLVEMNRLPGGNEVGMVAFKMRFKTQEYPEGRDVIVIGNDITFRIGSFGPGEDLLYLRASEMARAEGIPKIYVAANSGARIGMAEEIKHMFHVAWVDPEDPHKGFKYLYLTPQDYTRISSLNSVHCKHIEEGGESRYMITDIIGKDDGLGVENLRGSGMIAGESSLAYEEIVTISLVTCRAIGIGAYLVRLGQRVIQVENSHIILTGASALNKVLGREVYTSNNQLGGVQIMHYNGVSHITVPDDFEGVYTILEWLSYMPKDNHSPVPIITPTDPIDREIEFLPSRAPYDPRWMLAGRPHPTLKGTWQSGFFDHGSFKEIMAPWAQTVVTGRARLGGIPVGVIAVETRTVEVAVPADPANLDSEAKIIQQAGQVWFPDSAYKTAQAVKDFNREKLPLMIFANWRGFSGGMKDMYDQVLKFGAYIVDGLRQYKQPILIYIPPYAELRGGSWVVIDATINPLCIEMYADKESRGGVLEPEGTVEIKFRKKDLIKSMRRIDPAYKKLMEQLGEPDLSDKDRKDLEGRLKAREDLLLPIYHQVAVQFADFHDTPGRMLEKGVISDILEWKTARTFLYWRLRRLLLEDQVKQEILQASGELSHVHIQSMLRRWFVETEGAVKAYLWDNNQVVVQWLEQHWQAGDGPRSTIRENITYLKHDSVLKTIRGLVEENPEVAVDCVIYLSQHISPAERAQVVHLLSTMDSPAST

SMILES | IC50 [nM]
C[C@@H](NC(=O)[C@H]1CC[C@H](NS(=O)(=O)c2ccc3nc(-c4ccccc4)sc3c2)CC1)c1ccc(F)cc1 [Example 120, (1r,4R)-N-((R)-1-(4-fluorophenyl)ethyl)-4-(2-phenylbenzo[d]thiazole-6-sulfonamido)cyclohexanecarboxamide] | 34
O=C([C@H]1CC[C@H](NS(=O)(=O)c2ccc3[nH]c(-c4ccccc4)nc3c2)CC1)N1CCC2CCCCC2C1 (some centres unmarked) [Example 624, N-((1r-4r)-4-(decahydroisoquinoline-2-carbonyl)cyclohexyl)-2-phenyl-1H-benzo[d]imidazole-5-sulfonamide] | 246
COCc1ccc(-c2cc3ccc(S(=O)(=O)N[C@H]4CC[C@H](C(=O)N5CCOC[C@@H]5C5CC5)CC4)cc3n2C)cc1 [Example 456, N-((1S,4r)-4-((S)-3-cyclopropylmorpholine-4-carbonyl)cyclohexyl)-2-(4-(methoxymethyl)phenyl)-1-methyl-1H-indole-6-sulfonamide] | < 10
CC(C)CCNC(=O)[C@H]1CC[C@H](NS(=O)(=O)c2ccc3[nH]c(-c4ccccc4)nc3c2)CC1 [Example 630, (1r,4r)-N-isopentyl-4-(2-phenyl-1H-benzo[d]imidazole-5-sulfonamido)cyclohexanecarboxamide] | 781
Cc1ccccc1-c1cc2ccc(S(=O)(=O)N[C@H]3CC[C@H](C(=O)N4CCCC4c4ccccc4)CC3)cc2[nH]1 (some centres unmarked) [Example 335, N-((1r,4r)-4-(2-phenylpyrrolidine-1-carbonyl)cyclohexyl)-2-o-tolyl-1H-indole-6-sulfonamide] | 25
C[C@@H](NC(=O)[C@H]1CC[C@H](NS(=O)(=O)c2ccc3[nH]c(-c4ccc(CN5CCOCC5)cc4)nc3c2)CC1)c1ccccc1 [Example 577, (1r,4R)-4-(2-(4-(morpholinomethyl)phenyl)-1H-benzo[d]imidazole-5-surfonamido)-N-((R)-1-phenylethyl)cyclohexanecarboxamide] | 15
CC[C@@H]1CCc2cc(S(=O)(=O)N[C@H]3CC[C@H](C(=O)N[C@H](C)c4ccc(F)cc4)CC3)ccc2N1 [Example 171, (1r,4R)-4-((R)-2-ethyl-1,2,3,4-tetrahydroquinoline-6-sulfonamido)-N-((R)-1-(4-fluorophenyl)ethyl)cyclohexanecarboxamide] | 289
COCCOc1ccc(-c2cc3ccc(S(=O)(=O)N[C@H]4CC[C@H](C(=O)N[C@H](C)C(F)(F)F)CC4)cc3n2C)cc1 [Example 453, (1r,4R)-4-(2-(4-(2-methoxyethoxy)phenyl)-1-methyl-1H-indole-6-sulfonamido)-N-((R)-1,1,1-trifluoropropan-2-yl)cyclohexanecarboxamide] | 165
C[C@@H](NC(=O)[C@H]1CC[C@H](NS(=O)(=O)c2cnc3c(c2)OCCN3C)CC1)c1ccc(F)cc1 [Example 127, (1r-4R)-N-((R)-1-(4-fluorophenyl)ethyl)-4-(4-methyl-3,4-dihydro-2H-pyrido[3,2-b][1,4]oxazine-7-sulfonamido)cyclohexanecarboxamide] | 391
Cn1c(-c2ccccc2)cc2ccc(S(=O)(=O)N[C@H]3CC[C@H](C(=O)N4CCNC(C(F)(F)F)C4)CC3)cc21 (some centres unmarked) [Example 324, 1-methyl-2-phenyl-N-((1r,4r)-4-(3-(trifluoromethyl)piperazine-1-carbonyl)cyclohexyl)-1H-indole-6-sulfonamide] | 40
C[C@@H](NC(=O)[C@H]1CC[C@H](NS(=O)(=O)c2cnc3c(c2)N(C)CCN3C)CC1)c1ccc(F)cc1 [Example 34, (1r,4R)-4-(1,4-dimethyl-1,2,3,4-tetrahydropyrido[3,2-b]pyrazine-7-sulfonamido)-N—((R)-1-(4-fluorophenyl)ethyl)cyclohexanecarboxamide] | 138
C[C@@H]1CCCN1C(=O)[C@H]1CC[C@H](NS(=O)(=O)c2cnc3c(c2)N(C)CCN3C)CC1 [Example 129, 1,4-dimethyl-N-((1R,4r)-4-((R)-2-methylpyrrolidine-1-carbonyl)cyclohexyl)-1,2,3,4-tetrahydropyrido[3,2-b]pyrazine-7-sulfonamide] | 10400
CC(C)COC(=O)N1CCN(C(=O)OCC(C)C)c2cc(S(=O)(=O)N[C@H]3CC[C@H](C(=O)N[C@H](C)c4ccc(F)cc4)CC3)ccc21 [Example 214, diisobutyl 6-(N-((1R,4r)-4-((R)-1-(4-fluorophenyl)ethylcarbamoyl)cyclohexyl)sulfamoyl)-2,3-dihydroquinoxaline-1,4-dicarboxylate] | 365
C[C@@H](NC(=O)[C@H]1CC[C@H](NS(=O)(=O)c2ccc3[nH]c(Nc4ccc(N5CCN(C)CC5)cc4)nc3c2)CC1)c1ccccc1 [Example 606, (1r,4R)-4-(2-(4-(4-methylpiperazin-1-yl)phenylamino)-1H-benzo[d]imidazole-5-sulfonamido)-N-((R)-1-phenylethyl)cyclohexanecarboxamide] | < 10
CN(Cc1ccccc1)C(=O)[C@H]1CC[C@H](NS(=O)(=O)c2ccc3[nH]c(-c4ccccc4)nc3c2)CC1 [Example 619, (1r,4r)-N-benzyl-N-methyl-4-(2-phenyl-1H-benzo[d]imidazole-5-sulfonamido)cyclohexanecarboxamide] | 558
Cc1c(-c2ccccc2)nc2ccc(S(=O)(=O)N[C@H]3CC[C@H](C(=O)N[C@H](C)c4ccc(F)cc4)CC3)cn12 [Example 70, (1r,4R)-N-((R)-1-(4-fluorophenyl)ethyl)-4-(3-methyl-2-phenylimidazo[1,2-a]pyridine-6-sulfonamido)cyclohexanecarboxamide] | 165
CC1CC(C)CN(C(=O)[C@H]2CC[C@H](NS(=O)(=O)c3ccc4[nH]c(-c5ccccc5)nc4c3)CC2)C1 (some centres unmarked) [Example 626, N-((1r,4r)-4-(3,5-dimethylpiperidine-1-carbonyl)cyclohexyl)-2-phenyl-1H-benzo[d]imidazole-5-sulfonamide] | 78
Cn1c(-c2ccccc2)cc2ccc(S(=O)(=O)N[C@H]3CC[C@H](C(=O)N4CCCC(C(C)(C)O)C4)CC3)cc21 (some centres unmarked) [Example 378, N-((1r,4r)-4-(3-(2-hydroxypropan-2-yl)piperidine-1-carbonyl)cyclohexyl)-1-methyl-2-phenyl-1H-indole-6-sulfonamide] | 10
O=C(NCC1CCCCC1)[C@H]1CC[C@H](NS(=O)(=O)c2ccc3[nH]c(-c4ccccc4)nc3c2)CC1 [Example 639, (1r,4r)-N-(cyclohexylmethyl)-4-(2-phenyl-1H-benzo[d]imidazole-5-sulfonamido)cyclohexanecarboxamide] | 352
O=C(Nc1cc(F)cc(F)c1)[C@H]1CC[C@H](NS(=O)(=O)c2ccc3[nH]c(-c4ccccc4)nc3c2)CC1 [Example 646, (1r,4r)-N-(3,5-difluorophenyl)-4-(2-phenyl-1H-benzo[d]imidazole-5-sulfonamido)cyclohexanecarboxamide] | 1340
C[C@@H](NC(=O)[C@H]1CC[C@H](NS(=O)(=O)c2ccc3cc(Cl)ccc3c2)CC1)c1cccnc1 [Example 684, (1r,4R)-4-(6-chloronaphthalene-2-sulfonamido)-N-((R)-1-(pyridin-3-yl)ethyl)cyclohexanecarboxamide] | 180
COC[C@@H](NC(=O)[C@H]1CC[C@H](NS(=O)(=O)c2ccc3cc(C4CC4)n(C)c3c2)CC1)c1ccccc1 [Example 377, (1r,4S)-4-(2-cyclopropyl-1-methyl-1H-indole-6-sulfonamido)-N-((S)-2-methoxy-1-phenylethyl)cyclohexanecarboxamide] | 10
CCn1c(-c2ccccc2)cc2ccc(S(=O)(=O)N[C@H]3CC[C@H](C(=O)N4CCOC[C@@H]4C)CC3)cc21 [Example 486, 1-ethyl-N-((1S,4r)-4-((S)-3-methylmorpholine-4-carbonyl)cyclohexyl)-2-phenyl-1H-indole-6-sulfonamide] | 75
CN1CCN(C)c2ncc(S(=O)(=O)N[C@H]3CC[C@H](C(=O)N4CCN(C(=O)OCc5ccccc5)CC4c4ccccc4)CC3)cc21 (some centres unmarked) [Example 180, benzyl 4-((1r,4r)-4-(1,4-dimethyl-1,2,3,4-tetrahydropyrido[3,2-b]pyrazine-7-sulfonamido)cyclohexanecarbonyl)-3-phenylpiperazine-1-carboxylate] | 138
O=C(O)CCc1ccc(-c2cc3ccc(S(=O)(=O)N[C@H]4CC[C@H](C(=O)N5CCCCC5)CC4)cc3[nH]2)cc1 [Example 358, 3-(4-(6-(N-((1r,4r)-4-(piperidine-1-carbonyl)cyclohexyl)sulfamoyl)-1H-indol-2-yl)phenyl)propanoic acid] | 35
Cc1ccccc1-c1cc2ccc(S(=O)(=O)N[C@H]3CC[C@H](C(=O)N4CCN[C@H](C(F)(F)F)C4)CC3)cc2[nH]1 [Example 342, 2-o-tolyl-N-((1S,4r)-4-((S)-3-(trifluoromethyl)piperazine-1-carbonyl)cyclohexyl)-1H-indole-6-sulfonamide] | 135
Cn1c(-c2ccccc2)cc2ccc(S(=O)(=O)N[C@H]3CC[C@H](C(=O)N4CC(=O)NC[C@@H]4c4ccccc4)CC3)cc21 [Example 354, 1-methyl-N-((1S,4r)-4-((S)-5-oxo-2-phenylpiperazine-1-carbonyl)cyclohexyl)-2-phenyl-1H-indole-6-sulfonamide] | < 10
CCOC(=O)COc1ccc2cc(S(=O)(=O)N[C@H]3CC[C@H](C(=O)N[C@H](C)c4ccc(F)cc4)CC3)ccc2n1 [Example 73, ethyl 2-(6-(N-((1R,4r)-4-((R)-1-(4-fluorophenyl)ethylcarbamoyl)cyclohexyl)sulfamoyl)quinolin-2-yloxy)acetate] | 175
COC[C@@H](NC(=O)[C@H]1CC[C@H](NS(=O)(=O)c2ccc3cc(-c4ccccc4)n(C)c3c2)CC1)c1ccccc1 [Example 423, (1r,4S)-N-((S)-2-methoxy-1-phenylethyl)-4-(1-methyl-2-phenyl-1H-indole-6-sulfonamido)cyclohexanecarboxamide] | 40
